Assay results published in patent US20230114728A1 (Venatorx Pharmaceuticals, Inc., priority 2019, published 2023).
≈ marks a conversion by molar mass, not a printed value. Read-outs that look alike come from different tables or passages of the source.

What was measured:
[1] = biological target: T1, E. coli K12 PBP3 (Escherichia coli, UniProt P0AD68); assay: biochemical; type: binding
T1 construct: made in house
Summary of the method: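 Fluorescence polarization (ex 490/em 520 nm) competition of inhibitors against Bocillin-FL at 0.1 μM, read up to 60 min. Final PBP levels: E. coli PBP3 1.5 μM; A. baumannii PBP2 2.5 μM, PBP3 0.2 μM in Tris pH 8.0/NaCl/glycerol/Tween 20; N. gonorrhoeae PBP2 […] in Hepes pH 8.0/NaCl/glycerol. EC50 = concentration halving PBP-bound Bocillin-FL.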

[2] = tested on: N. gonorrhoeae WHO L; assay: Liquid broth MIC in Fastidious broth; type: cell-based; conditions: Neisseria gonorrhoeae, Fastidious broth
Summary of the method: (§1)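 Colonies were swabbed from chocolate agar after 24 h growth and standardised by optical density at 600 nm. Compounds were serially diluted twofold in Fastidious broth, and bacteria added to give 5×10^5 CFU/mL. After about 24 h at 36 °C in 5% CO2, the lowest concentration allowing under 10% growth was taken as MIC.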

[3] = tested on: N. gonorrhoeae WHO Q; assay: Liquid broth MIC in Fastidious broth; type: cell-based; conditions: Neisseria gonorrhoeae
Summary of the method: as §1

[4] = tested on: N. gonorrhoeae WHO K; assay: Liquid broth MIC in Fastidious broth; type: cell-based; conditions: Neisseria gonorrhoeae
Summary of the method: as §1

[5] = tested on: N. gonorrhoeae WHO Z; assay: Liquid broth MIC in Fastidious broth; type: cell-based; conditions: Neisseria gonorrhoeae
Summary of the method: as §1

[6] = tested on: N. gonorrhoeae ATCC 49226; assay: Liquid broth MIC in Fastidious broth; type: cell-based; conditions: Neisseria gonorrhoeae, ATCC49226, Fastidious broth
Summary of the method: as §1

[7] = tested on: N. gonorrhoeae H041; assay: Liquid broth MIC in Fastidious broth; type: cell-based; conditions: Neisseria gonorrhoeae
Summary of the method: as §1

[8] = tested on: N. gonorrhoeae WHO G; assay: Liquid broth MIC in Fastidious broth; type: cell-based; conditions: Neisseria gonorrhoeae, Fastidious broth
Summary of the method: as §1

[9] = tested on: N. gonorrhoeae FA1090; assay: Liquid broth MIC in Fastidious broth; type: cell-based; conditions: Neisseria gonorrhoeae, Fastidious broth
Summary of the method: as §1

[10] = biological target: T2, P. aeruginosa PBP3 (Pseudomonas aeruginosa, UniProt G3XD46); assay: Bocillin-FL fluorescence polarization competition binding assay, P. aeruginosa PBP3; conditions: fluorescence polarization competition binding assay using Bocillin-FL
T2 construct: made in house
T2 sequence (G3XD46 whole entry): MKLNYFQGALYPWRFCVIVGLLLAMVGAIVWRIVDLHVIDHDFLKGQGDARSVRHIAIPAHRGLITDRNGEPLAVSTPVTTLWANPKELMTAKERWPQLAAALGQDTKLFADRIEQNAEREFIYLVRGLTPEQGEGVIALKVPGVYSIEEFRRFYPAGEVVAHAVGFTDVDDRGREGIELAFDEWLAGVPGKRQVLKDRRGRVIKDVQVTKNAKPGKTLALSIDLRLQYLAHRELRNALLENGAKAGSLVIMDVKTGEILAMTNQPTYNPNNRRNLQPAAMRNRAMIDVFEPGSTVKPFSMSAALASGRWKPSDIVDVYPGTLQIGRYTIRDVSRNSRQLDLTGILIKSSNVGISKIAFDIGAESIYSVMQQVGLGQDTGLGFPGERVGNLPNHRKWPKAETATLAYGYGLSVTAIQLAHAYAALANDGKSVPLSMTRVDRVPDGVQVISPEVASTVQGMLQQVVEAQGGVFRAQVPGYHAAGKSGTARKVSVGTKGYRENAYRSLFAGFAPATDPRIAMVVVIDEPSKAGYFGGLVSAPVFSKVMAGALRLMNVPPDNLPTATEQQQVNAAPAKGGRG
Summary of the method: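 Binding of boronic acid inhibitors to purified Pseudomonas aeruginosa (PA01) PBP3 was measured by fluorescence polarization competition with Bocillin-FL, a fluorescent penicillin V. Reactions of 80 μl contained 0.75 μM PBP3 and 0.1 μM Bocillin-FL in 50 mM Hepes (pH 8.0), 300 mM NaCl and 5% (v/v) glycerol, in black 384-well plates. FP (Excitation 490 nm, Emission 520 nm) was read for up to 60 minutes. EC50 is the concentration that halves PBP-bound Bocillin-FL.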

[11] = N. gonorrhoeae strain WHO L, read-out: Minimum Inhibitory Concentration, N. gonorrhoeae WHO L
[12] = read-out: Minimum Inhibitory Concentration, N. gonorrhoeae WHO Q
[13] = read-out: Minimum Inhibitory Concentration, N. gonorrhoeae WHO K
[14] = read-out: Minimum Inhibitory Concentration, N. gonorrhoeae WHO Z
[15] = N. gonorrhoeae strain ATCC 49226, read-out: Minimum Inhibitory Concentration, N. gonorrhoeae ATCC 49226
[16] = H041, read-out: Minimum Inhibitory Concentration, N. gonorrhoeae H041
[17] = N. gonorrhoeae strain WHO G, read-out: Minimum Inhibitory Concentration, N. gonorrhoeae WHO G
[18] = N. gonorrhoeae strain FA1090, read-out: Minimum Inhibitory Concentration, N. gonorrhoeae FA1090

T1 sequence (P0AD68 1-577): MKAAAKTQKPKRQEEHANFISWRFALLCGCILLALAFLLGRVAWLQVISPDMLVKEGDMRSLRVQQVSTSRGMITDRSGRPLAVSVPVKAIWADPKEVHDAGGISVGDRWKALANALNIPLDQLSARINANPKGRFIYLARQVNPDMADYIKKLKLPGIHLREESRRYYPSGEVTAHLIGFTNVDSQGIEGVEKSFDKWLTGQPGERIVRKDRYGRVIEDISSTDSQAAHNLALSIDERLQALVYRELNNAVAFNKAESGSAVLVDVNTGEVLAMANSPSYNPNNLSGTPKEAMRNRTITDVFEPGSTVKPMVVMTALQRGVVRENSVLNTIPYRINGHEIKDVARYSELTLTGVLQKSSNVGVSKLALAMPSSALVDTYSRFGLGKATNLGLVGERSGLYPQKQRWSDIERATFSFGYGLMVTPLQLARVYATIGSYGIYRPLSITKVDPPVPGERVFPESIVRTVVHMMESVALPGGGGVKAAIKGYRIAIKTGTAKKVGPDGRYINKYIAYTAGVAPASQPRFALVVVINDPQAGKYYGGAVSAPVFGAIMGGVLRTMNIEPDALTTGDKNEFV

SMILES	EC50 [1]	MIC [2, 11]	MIC [3, 12]	MIC [4, 13]	MIC [5, 14]	MIC [6, 15]	MIC [7, 16]	MIC [8, 17]	MIC [9, 18]	P. aeruginosa PBP3 Potency [10]	MIC ([2]; N. gonorrhoeae WHO L, read-out: Minimum Inhibitory Concentration, WHO L)	MIC ([3]; read-out: Minimum Inhibitory Concentration, WHO Q)	MIC ([4]; read-out: Minimum Inhibitory Concentration, WHO K)	MIC ([5]; read-out: Minimum Inhibitory Concentration, WHO Z)	MIC ([6]; N. gonorrhoeae ATCC 49226, read-out: Minimum Inhibitory Concentration, ATCC 49226)	MIC ([7]; H041, read-out: Minimum Inhibitory Concentration, H041)	MIC ([8]; N. gonorrhoeae WHO G, read-out: Minimum Inhibitory Concentration, WHO G)	MIC ([9]; N. gonorrhoeae FA1090, read-out: Minimum Inhibitory Concentration, FA1090)
CCN1CCN(C(=O)N[C@@H](C(=O)N[C@H]2Cc3cccc(C(=O)O)c3OB2O)c2c(O)cc(O)cc2F)C(=O)C1=O (single isomer, unassigned) [Example 182]	< 30 µM	16 to 32 mg/L (≈ 28.7 to 57.3 µM)	16 to 32 mg/L (≈ 28.7 to 57.3 µM)	16 to 32 mg/L (≈ 28.7 to 57.3 µM)	16 to 32 mg/L (≈ 28.7 to 57.3 µM)	4 to 8 mg/L (≈ 7.16 to 14.3 µM)	> 64 mg/L	1 to 2 mg/L (≈ 1.79 to 3.58 µM)	< 0.125 mg/L									
NCCN1CCN(C(=O)N[C@@H](C(=O)N[C@H]2Cc3cccc(C(=O)O)c3OB2O)c2ccc(O)c(Cl)c2F)C(=O)C1=O (single isomer, unassigned) [Example 186]	< 30 µM	> 64 mg/L	> 64 mg/L	> 64 mg/L	> 64 mg/L	16 to 32 mg/L (≈ 27 to 54.1 µM)	> 64 mg/L	4 to 8 mg/L (≈ 6.76 to 13.5 µM)	0.25 to 0.5 mg/L (≈ 0.422 to 0.845 µM)	D (D represents a potency <10 μM)								
NCCN1CCN(C(=O)N[C@H](C(=O)N[C@H]2Cc3cccc(C(=O)O)c3OB2O)c2ccc(O)c(Cl)c2F)C(=O)C1=O (single isomer, unassigned) [Example 187]	30 to 500 µM	> 64 mg/L	> 64 mg/L	> 64 mg/L	> 64 mg/L	> 64 mg/L	> 64 mg/L	> 64 mg/L	4 to 8 mg/L (≈ 6.76 to 13.5 µM)	B (B represents a potency between 30 μM and 500 μM inclusive)								
O=C(NCCCN1CCN(C(=O)NC(C(=O)N[C@H]2Cc3cccc(C(=O)O)c3OB2O)c2ncc(O)cc2F)C(=O)C1=O)c1ccc(O)c(O)c1Cl (stereo partly drawn) [Example 1, (3R)-3-(2-(4-(3-(2-chloro-3,4-dihydroxybenzamido)propyl)-2,3-dioxopiperazine-1-carboxamido)-2-(3-fluoro-5-hydroxypyridin-2-yl)acetamido)-2-hydroxy-3,4-dihydro-2H-benzo[e][1,2]oxaborinine-8-carboxylic acid]	< 30 µM									D (D represents a potency <10 μM)								
C[C@H]1CN(CCNC(=O)c2ccc(O)c(O)c2Cl)C(=O)C(=O)N1C(=O)NC(C(=O)N[C@H]1Cc2cccc(C(=O)O)c2OB1O)c1ncc(O)cc1F (stereo partly drawn) [Example 2, (3R)-3-(2-((S)-4-(2-(2-chloro-3,4-dihydroxybenzamido)ethyl)-6-methyl-2,3-dioxopiperazine-1-carboxamido)-2-(3-fluoro-5-hydroxypyridin-2-yl)acetamido)-2-hydroxy-3,4-dihydro-2H-benzo[e][1,2]oxaborinine-8-carboxylic acid]	< 30 µM	> 64 mg/L		> 64 mg/L		> 64 mg/L	> 64 mg/L	> 64 mg/L	4 to 8 mg/L (≈ 5.38 to 10.8 µM)	D (D represents a potency <10 μM)								
O=C(NCCCN1CCN(C(=O)NC(C(=O)N[C@H]2Cc3ccc(F)c(C(=O)O)c3OB2O)c2ncc(O)cc2F)C(=O)C1=O)c1ccc(O)c(O)c1Cl (stereo partly drawn) [Example 3, (3R)-3-(2-(4-(3-(2-chloro-3,4-dihydroxybenzamido)propyl)-2,3-dioxopiperazine-1-carboxamido)-2-(3-fluoro-5-hydroxypyridin-2-yl)acetamido)-7-fluoro-2-hydroxy-3,4-dihydro-2H-benzo[e][1,2]oxaborinine-8-carboxylic acid]	< 30 µM									D (D represents a potency <10 μM)								
Nc1nc(C(NC(=O)N2CCN(CCNC(=O)c3ccc(O)c(O)c3Cl)C(=O)C2=O)C(=O)N[C@H]2Cc3ccc(F)c(C(=O)O)c3OB2O)c(F)s1 (stereo partly drawn) [Example 4, (3R)-3-(2-(2-amino-5-fluorothiazol-4-yl)-2-(4-(2-(2-chloro-3,4-dihydroxybenzamido)ethyl)-2,3-dioxopiperazine-1-carboxamido)acetamido)-7-fluoro-2-hydroxy-3,4-dihydro-2H-benzo[e][1,2]oxaborinine-8-carboxylic acid]	< 30 µM	> 64 mg/L		> 64 mg/L		16 to 32 mg/L (≈ 21.3 to 42.6 µM)	> 64 mg/L	4 to 8 mg/L (≈ 5.32 to 10.6 µM)	4 to 8 mg/L (≈ 5.32 to 10.6 µM)	D (D represents a potency <10 μM)								
O=C(NCCN1CCN(C(=O)NC(C(=O)N[C@H]2Cc3ccc(F)c(C(=O)O)c3OB2O)c2ncc(O)cc2F)C(=O)C1=O)c1c(F)cc(O)c(O)c1Cl (stereo partly drawn) [Example 5, (3R)-3-(2-(4-(2-(2-chloro-6-fluoro-3,4-dihydroxybenzamido)ethyl)-2,3-dioxopiperazine-1-carboxamido)-2-(3-fluoro-5-hydroxypyridin-2-yl)acetamido)-7-fluoro-2-hydroxy-3,4-dihydro-2H-benzo[e][1,2]oxaborinine-8-carboxylic acid]	< 30 µM	> 64 mg/L		> 64 mg/L		> 64 mg/L	> 64 mg/L	16 to 32 mg/L (≈ 20.9 to 41.8 µM)	4 to 8 mg/L (≈ 5.23 to 10.5 µM)	D (D represents a potency <10 μM)								
Nc1nc(/C(=N/OC[C@H](NC(=O)c2ccc(O)c(O)c2Cl)C(=O)O)C(=O)N[C@H]2Cc3cccc(C(=O)O)c3OB2O)cs1 [Example 6, (R)-3-((Z)-2-(2-aminothiazol-4-yl)-2-(((S)-2-carboxy-2-(2-chloro-3,4-dihydroxybenzamido)ethoxy)imino)acetamido)-2-hydroxy-3,4-dihydro-2H-benzo[e][1,2]oxaborinine-8-carboxylic acid]	30 to 500 µM	> 64 mg/L		> 64 mg/L		> 64 mg/L	> 64 mg/L	16 to 32 mg/L (≈ 25.2 to 50.5 µM)	16 to 32 mg/L (≈ 25.2 to 50.5 µM)	D (D represents a potency <10 μM)								
CCN1CCN(C(=O)NC(C(=O)N[C@H]2Cc3ccc(F)c(C(=O)O)c3OB2O)c2ncc(C(=O)O)cc2F)C(=O)C1=O (stereo partly drawn) [Example 33, 6-(2-(((R)-8-carboxy-7-fluoro-2-hydroxy-3,4-dihydro-2H-benzo[e][1,2]oxaborinin-3-yl)amino)-1-(4-ethyl-2,3-dioxopiperazine-1-carboxamido)-2-oxoethyl)-5-fluoronicotinic acid]		> 64 mg/L		> 64 mg/L		16 to 32 mg/L (≈ 27.2 to 54.3 µM)	> 64 mg/L	16 to 32 mg/L (≈ 27.2 to 54.3 µM)	4 to 8 mg/L (≈ 6.79 to 13.6 µM)	D (D represents a potency <10 μM)								
CCN1CCN(C(=O)N[C@H](C(=O)N[C@H]2Cc3ccc(F)c(C(=O)O)c3OB2O)c2ccc(O)c(O)c2)C(=O)C1=O [Example 210, (R)-3-((S)-2-(3,4-dihydroxyphenyl)-2-(4-ethyl-2,3-dioxopiperazine-1-carboxamido)acetamido)-7-fluoro-2-hydroxy-3,4-dihydro-2H-benzo[e][1,2]oxaborinine-8-carboxylic acid]	> 500 µM										> 64 mg/L	> 64 mg/L	> 64 mg/L	> 64 mg/L	> 64 mg/L	> 64 mg/L	> 64 mg/L	> 64 mg/L
NCCN1CCN(C(=O)N[C@@H](C(=O)N[C@H]2Cc3ccc(F)c(C(=O)O)c3OB2O)c2c(F)c(F)c(O)c(O)c2Cl)C(=O)C1=O [Example 226, (R)-3-((R)-2-(4-(2-aminoethyl)-2,3-dioxopiperazine-1-carboxamido)-2-(2-chloro-5,6-difluoro-3,4-dihydroxyphenyl)acetamido)-7-fluoro-2-hydroxy-3,4-dihydro-2H-benzo[e][1,2]oxaborinine-8-carboxylic acid]										B (B represents a potency between 30 μM and 500 μM inclusive)								
